Data taken from US20160243056A1, “Sustained Release Formulations Containing Methylglyoxal and Their Therapeutic Applications” (priority 2013, published 2016).
Like-named read-outs stand apart in the source and are kept apart here.

Legend:
Sarcoma-180 cells [1] = details: sarcoma-180 cells injected concomitantly with Methylglyoxal; cited from earlier work
[2] = test system: Glyceraldehyde-3-Phospahte Dehydrogenase; details: cited from earlier work
sarcoma-180 cells [3] = test: Measurement of tumor volume, Sarcoma-180 tumour in left hind leg of mice; type: in vivo, Swiss albino female mice; details: bare methylglyoxal 20 mg/kg body weight/day iv, five days a week
Description: In the present invention, effect of modified nanomethylGlyoxal, against tumor in mice, have been studied. Briefly, Swiss albino female mice aged 4-6 weeks weighing 18-20 g were taken. Each group contained four mice. Tumors were developed in the left hind leg of a mouse by intra-muscular injection of sarcoma-180 cells (approximately 2×10^6 cells in each mouse). Each set of experiment was repeated 4 times. Drug was administered to the mice intravenously, five days a week. Polymer conjugated methylglyoxal (Nano-MG) was administered intravenously at an amount of 0.4 mg/kg body weight/day. One group received bare methylglyoxal (20 mg/kg body weight/day). Drug was administered after 72 hours of inoculation of Sarcoma-180 tumour in the treated group. Treatment was continued for four weeks.

Mitochondrial Complex I = details: cited from earlier work
[4] = test system: Ehrlich ascites carcinoma (EAC) cells; test: Tumor growth inhibition of EAC cells inoculated intraperitoneally in mice (Trypan Blue cell count); type: in vivo
Description: The Effect of Nano-Methylglyoxal on the Excessive Proliferation of Cancerous Cells in Mice was Investigated as Follows: • a) Mice bearing Ehrlich ascites carcinoma cells (No. of EAC cell inoculated each mouse=1×10^6) were treated intravenously with nano-methylglyoxal in normal saline to observe the effect of cell proliferation. Treatment started after 24 hrs, of inoculation in mice intravenously with three different doses of nanoMG in solution. In first group every day each mouse received 25 μl nanoMG solution (containing 2.5 μg methylglyoxal), in second group each mouse received 50 μl nanoMG solution (containing 5 μg methylglyoxal) and in third group each mouse received 100 μl nanoMG solution (containing 10 μg methylglyoxal). Mice in the negative control group were similarly treated intravenously with normal saline and the positive control groups were treated intravenously with bare methylglyoxal (20 mg/kg body weight/day) in normal saline. Each group contains six mice. Each set of experiment was repeated four times. Melatonin (0.25 mg/kg body weight/day), creatine (150 mg/kg body weight/day) and Ascorbic acid (50 mg/kg body weight/day) were fed orally to each mouse. Treatment was continued for consecutive 8 days (Table-5, Table-6). […]

peritoneal macrophages [5] = test: Superoxide anion generation (production of reduced NBT) by peritoneal macrophages; type: in vivo, mice; details: bare MG 20 mg/kg body weight/day iv
Description: Values in the bracket denote dose at mg/kg body wt/day • Ehrlich ascites carcinoma (EAC) cells developed in the intraperitoneal cavity of mouse were collected in different time intervals. After washing with normal saline the cells were re-suspended in phosphate buffered saline. […] Number of Sarcoma-180 cells inoculated to each mouse was 1×10^6. The tumor bearing mice were treated with modified nano-methylglyoxal (present formulation) in normal saline through intravenous route to study the tumor growth inhibition by nano-methylglyoxal. Treatment started after 7 days of inoculation in mice intravenously with 50 μl nanoMG in solution (containing 5 μg methylglyoxal). Mice in the negative control group were similarly treated intravenously with normal saline and the positive control groups were treated intravenously with bare methylglyoxal (20 mg/kg body weight/day) in normal saline. Each group contained six mice. Each set of experiment was repeated four times. melatonin (0.25 mg/kg body weight/day), creatine (150 mg/kg body weight/day) and Ascorbic acid (50 mg/kg body weight/day) were fed orally to each mouse everyday. Treatment was given with single daily dose for consecutive 12 days. […] Treatment started after 7 days of inoculation in mice intravenously with 50 μl nanoMG in solution (containing 5 μg methylglyoxal). Treatment was continued for 20 doses (six doses per week) in 23 days. […]

peritoneal macrophages [6] = test: Peritoneal macrophage count in treated mice; type: in vivo; details: for Peritoneal macrophage Count (×10^6): bare MG 20 mg/kg body weight/day iv
Description: Values in the bracket denote dose at mg/kg body wt/day • Ehrlich ascites carcinoma (EAC) cells developed in the intraperitoneal cavity of mouse were collected in different time intervals. After washing with normal saline the cells were re-suspended in phosphate buffered saline. […] Number of Sarcoma-180 cells inoculated to each mouse was 1×10^6. The tumor bearing mice were treated with modified nano-methylglyoxal (present formulation) in normal saline through intravenous route to study the tumor growth inhibition by nano-methylglyoxal. Treatment started after 7 days of inoculation in mice intravenously with 50 μl nanoMG in solution (containing 5 μg methylglyoxal). Mice in the negative control group were similarly treated intravenously with normal saline and the positive control groups were treated intravenously with bare methylglyoxal (20 mg/kg body weight/day) in normal saline. Each group contained six mice. Each set of experiment was repeated four times. melatonin (0.25 mg/kg body weight/day), creatine (150 mg/kg body weight/day) and Ascorbic acid (50 mg/kg body weight/day) were fed orally to each mouse everyday. Treatment was given with single daily dose for consecutive 12 days. […] Treatment started after 7 days of inoculation in mice intravenously with 50 μl nanoMG in solution (containing 5 μg methylglyoxal). Treatment was continued for 20 doses (six doses per week) in 23 days. Melatonin (0.25 mg/kg body weight/day), creatine (150 mg/kg body weight/day) and Ascorbic acid (50 mg/kg body weight/day) were fed orally to each mouse. • d) Solid tumor bearing mice treated with nanoMG as described previously were sacrificed for the isolation of macrophages. Briefly, RPMI-1640 was injected in the peritoneal cavity of mouse and peritoneal macrophages were isolated and centrifuged and resuspended in RPMI-1640+10% FBS and used further for immunomodulatory studies. […] In the present invention, effect of modified nanomethylGlyoxal, against tumor in mice, have been studied. Briefly, Swiss albino female mice aged 4-6 weeks weighing 18-20 g were taken. Each group contained four mice. […]

Sarcoma = test: Sarcoma-bearing mice: Creatine content, CK activity and tumor size; type: in vivo
Description: We also investigated the status of Creatine and CK in a few post-operative tissue samples from human patients, and similar to the results of animal tissues, the Creatine content and CK activity were much reduced in both human Fibrosarcoma and Gastro-Intestinal Tract Malignancy, compared to healthy control tissues.

L1236 = details: cited from earlier work
[7] = test system: Ehrlich Ascites Carcinoma (EAC) cells; test: Oral Melatonin on EAC cells implanted intra-peritoneally in female mice; type: in vivo; details: Melatonin 50 mg/kg body wt.
Description: With these rationales, Melatonin has been applied to treat cancer in both animal and human in our laboratory and has shown significant improvement over the formulations without Melatonin. […] The effects of oral supplementation of Melatonin on growth of Ehrlich Ascites Carcinoma (EAC) cells implanted intra-peritoneally in female mice were studied in our lab. […] It has strong antioxidant properties and anticancer and onco-static action. Melatonin has potential anticancer activity whether given alone or in association with cancer chemotherapy. […] In this study, 30 patients with untreatable metastatic solid tumors were treated with daily 30 mg oral Melatonin in conjunction with low doses of antitumor cytokines. […] In addition Melatonin may have other biological effects, which could be useful in palliative therapy of Cancer.

For CC(=O)C=O [Bare-methylglyoxal, Methylglyoxal], the Tumor development (Sarcoma-180 cells [1]) is listed as “No tumor developed”, the Enzyme inhibition ([2]; enzyme of malignant cells) is listed as “inhibits” and the Enzyme inhibition ([2]; enzyme of normal cells) is listed as “no inhibitory effect”. The “Sarcoma-180 + Bare-MG Volume of tumour (c.c.)” value (“Sarcoma-180 + Bare-MG Volume” for short) (sarcoma-180 cells [3]; day 12) was 1 ± 0.1 c.c, the “Sarcoma-180 + Bare-MG Volume” value (sarcoma-180 cells [3]; day 16) was 1.4 ± 0.05 c.c and the “Sarcoma-180 + Bare-MG Volume” value (sarcoma-180 cells [3]; day 21) was 2 ± 0.15 c.c. The “Sarcoma-180 + Bare-MG Volume” value (sarcoma-180 cells [3]; day 26) was 2 ± 0.17 c.c, the “Sarcoma-180 + Bare-MG Volume” value (sarcoma-180 cells [3]; day 31) was 2.73 ± 0.27 c.c and the Enzyme inhibition (Mitochondrial Complex I; enzyme of malignant cells) was “inhibits”. The Enzyme inhibition (Mitochondrial Complex I; enzyme of normal cells) was “no inhibitory effect”, the “No. of cells on day 9” value ([4]; Bare-methylglyoxal 20 mg/kg body weight/day iv, 8 consecutive doses from day 1, in million cells) was 29 ± 2.9 and the “Superoxide anion generation Production of reduced NBT” value (peritoneal macrophages [5]; normal mice) was 243 ± 2.82 µmol. The “Superoxide anion generation Production of reduced NBT” value (peritoneal macrophages [5]; sarcoma tumour bearing mice) was 317.5 ± 10.60 µmol, the “Macrophage count increase with respect to untreated tumour bearing batch” value (peritoneal macrophages [6]; bare-MG treated mice (20 mg/kg/day iv)) was “two fold in bare-MG treated mice” and the “Peritoneal macrophage Count (×10^6)” value (peritoneal macrophages [6]; normal mice) was 10.88 ± 1.15 ×10^6. The “Peritoneal macrophage Count (×10^6)” value (peritoneal macrophages [6]; sarcoma tumour bearing mice) was 12.91 ± 1.46 ×10^6.
With CN(CC(=O)O)C(=N)N [Creatine] the “Effect of Creatine administration on the effect of Methylglyoxal and Ascorbic Acid” value (Sarcoma) was “significantly augmented”.
In the case of NC1=NCCN1CC(=O)O [Cyclocreatine, cyclocreatine], the Inhibition of proliferation (L1236) is listed as “nearly entirely”.
For COc1ccc2[nH]cc(CCNC(C)=O)c2c1 [Melatonin], the “Effect of introducing melatonin on tumor growth inhibition of EAC cells” value ([4]; melatonin in combination with ascorbic acid and creatine, with modified NanoMG) was 2. Efficacy is enhanced further when melatonin is introduced in combination with ascorbic acid and creatine for tumor growth inhibition of EAC cells in mice, the “Survival of the treated mice” value [7] was “increased the survival” and the “Viability and volume of Ehrlich Ascites Carcinoma cells” value [7] was “reduced the viability and volume”.
